Values after ≈ are worked out from the molar mass of the structure shown.
Columns and labels:
Format in all cases: cell-based
[1] = tested on: S. aureus strain MP-12; assay: Broth dilution MIC determination (CLSI) against S. aureus strain MP-12; settings: Staphylococcus aureus, MP12, strain MP-12
In short: (§1)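 MICs of the macrolides were determined by standard CLSI broth dilution. Values are binned: +++ for ≤4 mg/L, ++ for ≥8 and <32 mg/L, + for ≥32 mg/L.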

[2] = tested on: P. aeruginosa strain MP-3; assay: Broth dilution MIC determination (CLSI) against P. aeruginosa strain MP-3; settings: Pseudomonas aeruginosa, MP3
In short: as §1

[3] = tested on: A. baumannii strain MP-15; assay: Broth dilution MIC determination (CLSI) against A. baumannii strain MP-15; settings: Acinetobacter baumannii, MP15
In short: as §1

[4] = tested on: K. pneumoniae strain MP-548; assay: Broth dilution MIC determination (CLSI) against K. pneumoniae strain MP-548; settings: Klebsiella pneumoniae, MP548
In short: as §1

[5] = tested on: E. coli strain MP-4; assay: Broth dilution MIC determination (CLSI) against E. coli strain MP-4; settings: Escherichia coli, MP4
In short: as §1

SMILES	MIC [1] [µg/mL]	MIC [2] [µg/mL]	MIC [3] [µg/mL]	MIC [4] [µg/mL]	MIC [5] [µg/mL]
CC[C@@H]1CC(N(C)C)[C@@H](O)[C@H](O[C@@H]2[C@@H](C)C(=O)C(C)C(=O)O[C@H](CC)[C@@]3(C)OC(=O)N[C@@H]3[C@@H](C)NC[C@H](C)C[C@@]2(C)OC)O1 (stereo partly shown) [Compound 182, 3-Descladinosyl-3-oxo-6-O-methyl-N9a-desmethyl-11,12-dideoxy-12,11-(oxycarbonylimino)-5′-desmethyl-5′-ethyl Azithromycin]	8 to 32 (≈ 12.7 to 51 µM)	≥ 32	8 to 32 (≈ 12.7 to 51 µM)	8 to 32 (≈ 12.7 to 51 µM)	≤ 4
CC[C@H]1OC(=O)[C@@]2(C)CCOC(C)(C[C@@H](C)CN(CC)[C@H](C)[C@H]3NC(=O)O[C@@]31C)[C@H](O[C@@H]1OC(C)CC(N(C)C)C1O)[C@@H](C)C2=O (stereo partly shown) [Compound 221]	≤ 4	≥ 32	≥ 32	≤ 4	≤ 4
CC[C@H]1OC(=O)[C@@]2(C)CCOC(C)(C[C@@H](C)CN[C@H](C)[C@H]3NC(=O)O[C@@]31C)[C@H](O[C@@H]1OC(CNC3CC3)CC(N(C)C)C1O)[C@@H](C)C2=O (stereo partly shown) [Compound 80]	≤ 4	8 to 32 (≈ 11.7 to 47 µM)	8 to 32 (≈ 11.7 to 47 µM)	≤ 4	≤ 4
CC[C@H]1OC(=O)[C@@]2(C)CCOC(C)(C[C@@H](C)CN(C)[C@H](C)[C@H]3NC(=O)O[C@@]31C)[C@H](O[C@@H]1OC(CNC(C)C)CC(N(C)C)C1O)[C@@H](C)C2=O (stereo partly shown) [Compound 214]	≤ 4	≥ 32	≥ 32	≤ 4	≤ 4
CC[C@H]1OC(=O)[C@@]2(C)CCOC(C)(C[C@@H](C)CN[C@H](C)[C@H]3NC(=O)O[C@@]31C)[C@H](O[C@@H]1O[C@H](CNCC(F)(F)F)C[C@H](N(C)C)[C@H]1O)[C@@H](C)C2=O [Compound 206]	≤ 4	≥ 32	≥ 32	8 to 32 (≈ 11.1 to 44.3 µM)	≤ 4
CC[C@H]1OC(=O)C(C)C(=O)[C@H](C)[C@@H](OC2OC(CN3CCCCC34CC4)CC(N(C)C)C2O)[C@](C)(OC)C[C@@H](C)CN[C@H](C)[C@H]2NC(=O)O[C@@]21C (stereo partly shown) [Compound 135, 3-Descladinosyl-3-oxo-6-O-methyl-N9a-desmethyl-11,12-dideoxy-12,11-(oxycarbonylimino)-6′-(4″-azaspiro[2″.5″]octanyl)amino Azithromycin]	8 to 32 (≈ 11.1 to 44.3 µM)	≥ 32	≤ 4	8 to 32 (≈ 11.1 to 44.3 µM)	≤ 4
CC[C@H]1OC(=O)C(C)C(=O)[C@H](C)[C@@H](OC2OC(CNCC(=O)OC)CC(N(C)C)C2O)[C@](C)(OC)C[C@@H](C)CN[C@H](C)[C@H]2NC(=O)O[C@@]21C (stereo partly shown) [Compound 127, 3-Descladinosyl-3-oxo-6-O-methyl-N9a-desmethyl-11,12-dideoxy-12,11-(oxycarbonylimino)-6′-(methyl aminomethylcarboxylate) Azithromycin]	≥ 32	≥ 32	≥ 32	8 to 32 (≈ 11.4 to 45.7 µM)	≤ 4
CC[C@H]1OC(=O)C(C)C(=O)[C@H](C)[C@@H](O[C@@H]2OC(CNCc3ccccc3)CC(N(C)C)C2O)[C@](C)(OC)C[C@@H](C)CN[C@H](C)[C@H]2NC(=O)O[C@@]21C (stereo partly shown) [Compound 28]	≥ 32	≥ 32	≥ 32	≥ 32	≤ 4
CC[C@H]1OC(=O)C(C)C(=O)[C@H](C)[C@@H](OC2OC(CCNC3CC3)CC(N(C)C)C2O)[C@](C)(OC)C[C@@H](C)CN[C@H](C)[C@H]2NC(=O)O[C@@]21C (stereo partly shown) [Compound 187, 3-Descladinosyl-3-oxo-6-O-methyl-N9a-desmethyl-11,12-dideoxy-12,11-(oxycarbonylimino)-5′-desmethyl-5′-(2-(aminocyclopropyl)ethyl) Azithromycin]	≥ 32	≥ 32	≥ 32	≤ 4	≤ 4
CC[C@H]1OC(=O)C(C)C(=O)[C@H](C)[C@@H](OC2OC(CN(C)C3CCC3)CC(N(C)C)C2O)[C@](C)(OC)C[C@@H](C)CN[C@H](C)[C@H]2NC(=O)O[C@@]21C (stereo partly shown) [Compound 150, 3-Descladinosyl-3-oxo-6-O-methyl-N9a-desmethyl-11,12-dideoxy-12,11-(oxycarbonylimino)-6′-methylcyclobutylamino Azithromycin]	≥ 32	≥ 32	≥ 32	≥ 32	8 to 32 (≈ 11.5 to 45.9 µM)
C=CC1CO[C@@]2(C)C[C@@H](C)CN[C@H](C)[C@H]3NC(=O)O[C@]3(C)[C@@H](CC)OC(=O)[C@@]1(C)C(=O)[C@H](C)[C@H]2OC1OC(C)CC(N(C)C)C1O (stereo partly shown) [Compound 224]	≥ 32	≥ 32	≥ 32	≥ 32	≥ 32
CC[C@H]1OC(=O)C(C)C(=O)[C@H](C)[C@@H](OC2OC(CN(C)C(C)=O)CC(N(C)C)C2O)[C@](C)(OC)C[C@@H](C)CN[C@H](C)[C@H]2NC(=O)O[C@@]21C (stereo partly shown) [Compound 169, 3-Descladinosyl-3-oxo-6-O-methyl-N9a-desmethyl-11,12-dideoxy-12,11-(oxycarbonylimino)-6′-(N-methyl-N-acetylamino) Azithromycin]	≥ 32	≥ 32	≥ 32	≥ 32	≥ 32
CC[C@H]1OC(=O)[C@@](C)(F)C(=O)[C@H](C)[C@@H](O[C@@H]2OC(CNCc3ccccn3)CC(N(C)C)C2O)[C@](C)(OC)C[C@@H](C)C(=O)[C@H](C)[C@H]2NC(=O)O[C@@]21C (stereo partly shown) [Compound 100]	≤ 4	≥ 32	≥ 32	≥ 32	8 to 32 (≈ 10.9 to 43.4 µM)
CC[C@H]1OC(=O)C(C)C(=O)[C@H](C)[C@@H](O[C@@H]2OC(CNCc3ccc(C(C)(C)C)cc3)CC(N(C)C)C2O)[C@](C)(OC)C[C@@H](C)CN[C@H](C)[C@H]2NC(=O)O[C@@]21C (stereo partly shown) [Compound 37]	≥ 32	≥ 32	≥ 32	≥ 32	≥ 32
CC[C@H]1OC(=O)[C@@]2(C)CCOC(C)(C[C@@H](C)CN(C)[C@H](C)[C@H]3NC(=O)O[C@@]31C)[C@H](O[C@@H]1OC(CN)CC(N(C)C)C1O)[C@@H](C)C2=O (stereo partly shown) [Compound 218]	8 to 32 (≈ 12.2 to 48.9 µM)	≥ 32	≥ 32	≥ 32	8 to 32 (≈ 12.2 to 48.9 µM)
CO[C@]1(C)C[C@@H](C)CN[C@H](C)[C@H]2NC(=O)O[C@]2(C)[C@@H](C)OC(=O)C(C)C(=O)[C@H](C)[C@H]1OC1OC(CN(C)CC2CC2)CC(N(C)C)C1O (stereo partly shown) [Compound 156, 3-Desdadinosyl-3-oxo-6-O-methyl-N9a-desmethyl-11,12-dideoxy-12,11-(oxycarbonylimino)-6′-methylcyclopropylmethyl-13-methyl Azithromycin]	≥ 32	≥ 32	≥ 32	≥ 32	≥ 32
CC[C@H]1OC(=O)C(C)C(=O)[C@H](C)[C@@H](OC2OC(CN(C)CC)CC(N(C)C)C2O)[C@](C)(OC)C[C@@H](C)CN[C@H](C)[C@H]2NC(=O)O[C@@]21C (stereo partly shown) [Compound 151, 3-Descladinosyl-3-oxo-6-O-methyl-N9a-desmethyl-11,12-dideoxy-12,11-(oxycarbonylimino)-6′-methylethylamino Azithromycin]	≥ 32	≥ 32	≥ 32	8 to 32 (≈ 11.9 to 47.7 µM)	≤ 4
CC[C@H]1OC(=O)C(C)C(=O)[C@H](C)[C@@H](OC2OC(CN3CC(F)C3)CC(N(C)C)C2O)[C@](C)(OC)C[C@@H](C)CN[C@H](C)[C@H]2NC(=O)O[C@@]21C (stereo partly shown) [Compound 143, 3-Descladinosyl-3-oxo-6-O-methyl-N9a-desmethyl-11,12-dideoxy-12,11-(oxycarbonylimino)-6′-(3″-fluoroazetidin-1″-yl) Azithromycin]	8 to 32 (≈ 11.6 to 46.6 µM)	≥ 32	≥ 32	8 to 32 (≈ 11.6 to 46.6 µM)	≤ 4
CC[C@H]1OC(=O)[C@@](C)(F)C(=O)[C@H](C)[C@@H](O[C@@H]2OC(COC/C=C/c3cncnc3)CC(N(C)C)C2O)[C@](C)(OC)C[C@@H](C)C(=O)[C@H](C)[C@H]2NC(=O)O[C@@]21C (stereo partly shown) [Compound 105]	≤ 4	≥ 32	≥ 32	≥ 32	≥ 32
CC[C@H]1OC(=O)[C@]2(C)CCO[C@](C)(C[C@@H](C)CN[C@H](C)[C@H]3NC(=O)O[C@@]31C)[C@H](O[C@@H]1O[C@H](CNCC3CC3)C[C@H](N(C)C)[C@H]1O)[C@@H](C)C2=O [Compound 196]	≥ 32	≥ 32	≥ 32	≥ 32	8 to 32 (≈ 11.5 to 46 µM)

From US11673910B2, “Macrolides with modified desosamine sugars and uses thereof” (Zikani Therapeutics, Inc., priority 2017, dated 2023)
